The text below walks through data of patent US7064120B2, “Tricyclic pyridyl carboxamides and derivatives thereof tocolytic oxytocin receptor antagonists” (Wyeth, priority 2001, dated 2006).

The term inhibition denotes the percentage by which the read-out fell short of the control.

The experiment deals with T1, human oxytocin receptor (Homo sapiens, UniProt P30559).
T1 construct: host or cells: CHO cells, stably transfected (pcDNA3.1 vector)
T1 sequence (P30559 1-389): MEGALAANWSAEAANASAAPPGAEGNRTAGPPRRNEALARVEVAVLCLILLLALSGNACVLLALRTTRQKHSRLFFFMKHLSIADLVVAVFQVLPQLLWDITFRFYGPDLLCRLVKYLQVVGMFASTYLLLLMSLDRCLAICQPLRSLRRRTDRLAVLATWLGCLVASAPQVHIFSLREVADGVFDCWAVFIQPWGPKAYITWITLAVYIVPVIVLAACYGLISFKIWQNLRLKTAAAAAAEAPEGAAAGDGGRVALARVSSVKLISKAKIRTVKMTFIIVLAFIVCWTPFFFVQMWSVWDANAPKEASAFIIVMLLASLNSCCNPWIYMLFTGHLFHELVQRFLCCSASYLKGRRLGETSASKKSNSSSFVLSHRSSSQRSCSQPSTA
In words: Oxytocin binding in CHO cell membranes expressing human oxytocin receptors ([3H]oxytocin radioligand binding). Particulars: 100 nM, read-out: OT % inhibition @ 100 nM. A digest of the protocol: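 CHO membranes expressing human oxytocin receptor (25–50 μg protein/well) incubated 60 min at room temperature with [3H]oxytocin in Tris-HCl pH 7.4 buffer with MgCl2, BSA and protease inhibitors. Filtration and scintillation counting; reported as % inhibition at a stated concentration or nM IC50.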
On to `COc1cc(-c2ccccc2C)c(Cl)cc1C(=O)N1Cc2ccc(C(=O)N3CCCCC3c3cccnc3)n2Cc2ccccc21` (stereo not shown) [Example 140, {10-[(6-Chloro-3-methoxy-2′-methyl-[1,1′-biphenyl]-4-yl)carbonyl]-10,11-dihydro-5H-pyrrolo[2,1-c][1,4]benzodiazepin-3-yl}[2-(3-pyridinyl)-1-piperidinyl]methanone], for which the inhibition at 0.1 µM is 95%.
In the case of `COc1ccccc1-c1ccc(C(=O)N2Cc3ccc(C(=O)N4CCCCC4c4cccnc4)n3Cc3ccccc32)cc1OC` (stereo not shown) [Example 141, {10-[(2,2′-Dimethoxy-[1,1′-biphenyl]-4-yl)carbonyl]-10,11-dihydro-5H-pyrrolo[2,1-c][1,4]benzodiazepin-3-yl}[2-(3-pyridinyl)-1-piperidinyl]methanone] it was 96%.
On to `Cc1cc(C(=O)N2Cc3ccc(C(=O)N4CCCCC4c4cccnc4)n3Cc3ccccc32)ccc1-c1ccccc1C(F)(F)F` (stereo not shown) [Example 142, (10-{[2-Methyl-2′-trifluoromethyl-[1,1′-biphenyl]-4-yl]carbonyl}-10,11-dihydro-5H-pyrrolo[2,1-c][1,4]benzodiazepin-3-yl)[2-(3-pyridinyl)-1-piperidinyl]methanone], for which the inhibition at 0.1 µM came to 93%.
Turning to `COc1cc(C(=O)N2Cc3ccc(C(=O)N(C)CCc4ccccn4)n3Cc3ccccc32)ccc1-n1c(C)ccc1C` [Example 144, 10-[4-(2,5-Dimethyl-1H-pyrrol-1-yl)-3-methoxybenzoyl]-N-methyl-N-[2-(pyridin-2-yl)ethyl]-10,11-dihydro-5H-pyrrolo[2,1-c][1,4]benzodiazepine-3-carboxamide], the inhibition at 0.1 µM was 57%.
For `COc1cc(C(=O)N2Cc3ccc(C(=O)N4CCN(c5ccccn5)CC4)n3Cc3ccccc32)ccc1-n1c(C)ccc1C` [Example 145, {10-[4-(2,5-Dimethyl-1H-pyrrol-1-yl)-3-methoxybenzoyl]-10,11-dihydro-5H-pyrrolo[2,1-c][1,4]benzodiazepin-3-yl}[4-(pyridin-2-yl)-1-piperazinyl]methanone], the inhibition at 0.1 µM came out at 22%.
Consider `COc1cc(C(=O)N2Cc3ccc(C(=O)N4CCN(c5ccncc5)CC4)n3Cc3ccccc32)ccc1-n1c(C)ccc1C` [Example 146, {10-[4-(2,5-Dimethyl-1H-pyrrol-1-yl)-3-methoxybenzoyl]-10,11-dihydro-5H-pyrrolo[2,1-c][1,4]benzodiazepin-3-yl}[4-(pyridin-4-yl)-1-piperazinyl]methanone], for which the inhibition at 0.1 µM turned out to be 38%.
With `COc1cc(C(=O)N2Cc3ccc(C(=O)N(C)CCc4ccncc4)n3Cc3ccccc32)ccc1-n1c(C)ccc1C` [Example 147, 10-[4-(2,5-Dimethyl-1H-pyrrol-1-yl)-3-methoxybenzoyl]-N-methyl-N-[2-(pyridin-4-yl)ethyl]-10,11-dihydro-5H-pyrrolo[2,1-c][1,4]benzodiazepine-3-carboxamide] the figure was 64%.
